{"source": "patent US20240382487A1", "about": "“NOVEL COPI/ARF1-LIPOLYSIS PATHWAY INHIBITOR AND COMPOUND FOR ERADICATING CANCER STEM CELLS AND INDUCING DAMP-MEDIATED ANTI-TUMOR IMMUNE RESPONSE” (FUDAN UNIVERSITY, priority 2020, published 2024)", "key": {"Arf1": {"target": "T1, Arf1 (Homo sapiens, UniProt P84077)", "T1 construct": "Active Arf1 was detected by using The Thermo Scientific Pierce Active Arf1 Pull-Down and Detection Kit (Cat #16121) with liver cancer Huh-7 cell lysate; endogenous in cells; host or cells: Huh-7 liver cancer cells (lysate)", "test": "Active Arf1 Pull-Down and Detection Kit (GTP-bound Arf1)", "assay_type": "biochemical", "settings": "liver cancer Huh-7 cell lysate; FIG. 1", "text": "Active Arf1 was detected by using The Thermo Scientific Pierce Active Arf1 Pull-Down and Detection Kit (Cat #16121) with liver cancer Huh-7 cell lysate. It is a complete kit for selective enrichment and detection of GTP-bound Arf1 GTPase through specific protein interaction with the GGA3 protein-binding domain (FIG. 1)."}, "lung cancer cells H460": {"test_system": "lung cancer cells H460", "test": "In vitro cell line screening, H460", "assay_type": "cell-based", "text": "(§1) In different tumor cytotoxicity experiments in vitro (FIG. 2-FIG. 7), including colorectal cancer cell lines HT29 and LoVo cells, liver cancer cell Huh7, lung cancer cells H460 and A549, the arf1 inhibitor could all inhibit tumor cell growth (FIG. 2-FIG. 6), and there was a dose-dependent manner (FIG. 7)."}, "lung cancer cells A549": {"test_system": "lung cancer cells A549", "test": "In vitro cell line screening, A549", "assay_type": "cell-based", "text": "as §1"}, "tumor cells": {"test_system": "tumor cells", "test": "Tumor cytotoxicity experiments in vitro (all lines, general statements)", "assay_type": "cell-based", "settings": "HT29, LoVo, Huh7, H460, A549; FIG. 2-7", "text": "as §1"}, "mice": {"test_system": "mice", "test": "Toxicity in mice, oral gavage", "assay_type": "in vivo", "settings": "mouse, in vivo, po"}, "CT-26 colon carcinoma": {"test_system": "CT-26 colon carcinoma", "test": "Drug-treated CT-26 cells in athymic nude mice", "assay_type": "in vivo", "set-up": "unit not given here", "settings": "cells treated with 10 μM Du 102", "procedure": "(§2) The immunogenicity of the reagents can be tested in mouse vaccination models (Obeid et al., 2007; Sagiv barfi et al., 2018). One flank of the mouse was injected with drug treated tumor cells, followed one week later by a second injection of syngeneic tumor cells. We tested the vaccine efficacy in CT-26 colon cancer, B16-F10 melanoma, and 4T1 breast cancer treated with DMSO or du102.\n(§3) Cells will be treated with 10 μM Du 102 or DMSO treated CT26, 4T1 and B16-F10 tumor cells (5×10^5\\1×10^5 and 5×10^5, respectively) were subcutaneously inoculated into 6-week-old female mice. After 7 days, equal amounts of corresponding tumor cells were seeded to the right side. Tumor cell lines were mixed with Matrigel (GIBCO, cat s̆ 354234) or resuspended in PBS and injected subcutaneously or intradermally."}, "CT-26 colon cancer": {"test_system": "CT-26 colon cancer", "test": "Vaccination model, drug-treated CT-26 cells in BALB/c mice", "assay_type": "in vivo", "set-up": "tumor size, left side with drug treatment / tumors on right side after vaccination on left side: unit not given here", "settings": "CT-26, BALB/c mice; for tumor size, left side with drug treatment: cells treated with 10 μM Du 102; for tumors on right side after vaccination on left side: untreated cells re-challenge"}, "B16-F10 melanoma": {"test_system": "B16-F10 melanoma", "test": "Vaccination model, drug-treated B16-F10 cells in C57B/6 mice", "assay_type": "in vivo", "set-up": "unit not given here", "settings": "B16-F10, C57B/6 mice; for tumor size, left side with drug treatment: cells treated with 10 μM Du 102"}, "4T1 breast carcinoma": {"test_system": "4T1 breast carcinoma", "test": "Drug-treated 4T1 cells in athymic nude mice", "assay_type": "in vivo", "set-up": "unit not given here", "settings": "cells treated with 10 μM Du 102", "procedure": "as §2, §3"}, "IL-1β [1]": {"test_system": "IL-1β", "test": "IL-1β assay, CD11c+ DCs co-cultured with treated CT26 cells", "assay_type": "cell-based", "settings": "CT-26 colon cancer model, BALB/c mice; co-culture 2 days", "procedure": "(§4) For IL-1 β Assay: seven days after CT26 cell lysate injection. CD11c+DCs were isolated from injected BALB/c mice and co cultured with CT26 cells treated with DMSO or du102. After 2 days, […] was measured in harvested cells (Table 11). For the IFN-y assay: CD11c^+ DC and CD8^+ T cells were isolated from injected BALB/c mice 7 days after CT26 cell lysate injection and co cultured with CT26 cells treated with DMSO or du102. After 2 days. IFN-y was measured in harvested cells (table 11)."}, "INFγ": {"test_system": "INFγ", "test": "IFN-γ assay, CD11c+ DC and CD8+ T cells co-cultured with treated CT26 cells", "assay_type": "cell-based", "settings": "CT-26 colon cancer model, BALB/c mice; co-culture 2 days", "procedure": "as §4"}, "IL-1β [2]": {"test_system": "IL-1β", "test": "IL-1β induction, B16-F10 melanoma model", "assay_type": "cell-based", "settings": "B16-F10 melanoma model in C57B/6 mice", "text": "Example 7. Dulo2 Treatment Induces IL-1 in B16-F10 Melanoma of C57B/6 Mice. (Table 12)"}, "[3]": {"test_system": "MHC expression, CD4 and CD8 T cell infiltration", "test": "MHC expression and T-cell infiltration in MYC-ON mice", "assay_type": "in vivo", "text": "Du 102 treatment increases MHC expression. CD4 and CD8 T cell infiltration as quantified by Q-PCR in myc-on mice (Table 16).\nMHC-1 or MHC-II positive infiltrating CD4+ and CD8+ T-cells measured by immunohistochemical staining of representative section."}}, "note": "Like-named read-outs stand apart in the source and are kept apart here.", "data": [{"substance": "1H-indolo-5-carbaldehyde 5,6,7,8,9,10-hexahydrocycloocta[4,5]thieno[2,3-d]pyrimidin-4-ylhydrazone [Du 102]", "values": [{"measurement": "inhibition of arf1 activation", "setting": "Arf1", "value": "potent inhibitors"}, {"measurement": "tumor suppressive effect", "setting": "lung cancer cells H460", "value": "potency tumor suppressive effect"}, {"measurement": "tumor suppressive effect", "setting": "lung cancer cells H460; listed as Dul02", "value": "effective tumor suppressive effects"}, {"measurement": "tumor suppressive effect", "setting": "lung cancer cells A549", "value": "potency tumor suppressive effect"}, {"measurement": "tumor suppressive effect", "setting": "lung cancer cells A549; listed as Dul02", "value": "effective tumor suppressive effects"}, {"measurement": "tumor suppressive / inhibitory effect on tumor cells", "setting": "tumor cells", "value": "Some Tumor Suppressive Effect"}, {"measurement": "toxic effects", "setting": "mice", "value": "no toxic effects were observed"}, {"measurement": "CT-26 colon carcinoma tumor in Athymic mice", "setting": "CT-26 colon carcinoma; Day 0", "value": 0}, {"measurement": "CT-26 colon carcinoma tumor in Athymic mice", "setting": "CT-26 colon carcinoma; Day 5", "value": 0}, {"measurement": "CT-26 colon carcinoma tumor in Athymic mice", "setting": "CT-26 colon carcinoma; Day 10", "value": 15}, {"measurement": "CT-26 colon carcinoma tumor in Athymic mice", "setting": "CT-26 colon carcinoma; Day 15", "value": 117}, {"measurement": "CT-26 colon carcinoma tumor in Athymic mice", "setting": "CT-26 colon carcinoma; Day 20", "value": 417}, {"measurement": "CT-26 colon carcinoma tumor in Athymic mice", "setting": "CT-26 colon carcinoma; Day 25", "value": 859}, {"measurement": "regression of both left- and right-sided tumours", "setting": "CT-26 colon cancer; tables 3 and 4", "value": "almost complete regression"}, {"measurement": "tumor size, left side with drug treatment", "setting": "CT-26 colon cancer; Day 0", "value": 0}, {"measurement": "tumors on right side after vaccination on left side", "setting": "CT-26 colon cancer; Day 0", "value": 0}, {"measurement": "tumor size, left side with drug treatment", "setting": "CT-26 colon cancer; Day 5", "value": 0}, {"measurement": "tumors on right side after vaccination on left side", "setting": "CT-26 colon cancer; Day 5", "value": 0}, {"measurement": "tumor size, left side with drug treatment", "setting": "CT-26 colon cancer; Day 10", "value": 2}, {"measurement": "tumors on right side after vaccination on left side", "setting": "CT-26 colon cancer; Day 10", "value": 0}, {"measurement": "tumor size, left side with drug treatment", "setting": "CT-26 colon cancer; Day 15", "value": 8}, {"measurement": "tumor size, left side with drug treatment", "setting": "CT-26 colon cancer; Day 20", "value": 57}, {"measurement": "tumors on right side after vaccination on left side", "setting": "CT-26 colon cancer; Day 20", "value": 3.7}, {"measurement": "tumor size, left side with drug treatment", "setting": "CT-26 colon cancer; Day 25", "value": 81}, {"measurement": "tumors on right side after vaccination on left side", "setting": "CT-26 colon cancer; Day 25", "value": 7.6}, {"measurement": "tumor size, left side with drug treatment", "setting": "CT-26 colon cancer; Day 30", "value": 178}, {"measurement": "tumors on right side after vaccination on left side", "setting": "CT-26 colon cancer; Day 30", "value": 14.1}, {"measurement": "tumors on right side after vaccination on left side", "setting": "B16-F10 melanoma; Day 0", "value": 0}, {"measurement": "tumor size, left side with drug treatment", "setting": "B16-F10 melanoma; Day 0", "value": 0}, {"measurement": "tumors on right side after vaccination on left side", "setting": "B16-F10 melanoma; Day 5", "value": 0}, {"measurement": "tumor size, left side with drug treatment", "setting": "B16-F10 melanoma; Day 5", "value": 0}, {"measurement": "tumors on right side after vaccination on left side", "setting": "B16-F10 melanoma; Day 10", "value": 0}, {"measurement": "tumor size, left side with drug treatment", "setting": "B16-F10 melanoma; Day 10", "value": 2}, {"measurement": "tumors on right side after vaccination on left side", "setting": "B16-F10 melanoma; Day 15", "value": 0.6}, {"measurement": "tumor size, left side with drug treatment", "setting": "B16-F10 melanoma; Day 15", "value": 8}, {"measurement": "tumors on right side after vaccination on left side", "setting": "B16-F10 melanoma; Day 20", "value": 1.3}, {"measurement": "tumor size, left side with drug treatment", "setting": "B16-F10 melanoma; Day 20", "value": 57}, {"measurement": "tumors on right side after vaccination on left side", "setting": "B16-F10 melanoma; Day 25", "value": 9.1}, {"measurement": "tumor size, left side with drug treatment", "setting": "B16-F10 melanoma; Day 25", "value": 81}, {"measurement": "tumors on right side after vaccination on left side", "setting": "B16-F10 melanoma; Day 30", "value": 21.3}, {"measurement": "tumor size, left side with drug treatment", "setting": "B16-F10 melanoma; Day 30", "value": 177}, {"measurement": "4T1 breast carcinoma tumor in Athymic mice", "setting": "4T1 breast carcinoma; Day 0", "value": 0}, {"measurement": "4T1 breast carcinoma tumor in Athymic mice", "setting": "4T1 breast carcinoma; Day 5", "value": 21.7}, {"measurement": "4T1 breast carcinoma tumor in Athymic mice", "setting": "4T1 breast carcinoma; Day 10", "value": 41.3}, {"measurement": "4T1 breast carcinoma tumor in Athymic mice", "setting": "4T1 breast carcinoma; Day 15", "value": 163.3}, {"measurement": "4T1 breast carcinoma tumor in Athymic mice", "setting": "4T1 breast carcinoma; Day 20", "value": 385.4}, {"measurement": "4T1 breast carcinoma tumor in Athymic mice", "setting": "4T1 breast carcinoma; Day 25", "value": 793.2}, {"measurement": "IL-1β", "setting": "IL-1β [1]", "value": 954}, {"measurement": "INFγ", "setting": "INFγ", "value": 623}, {"measurement": "IL-1β", "setting": "IL-1β [2]", "value": 952}, {"measurement": "MHC-1", "setting": "[3]; DMSO 0.6", "value": 51.7}, {"measurement": "MHC-II", "setting": "[3]; DMSO 0.7", "value": 43.6}, {"measurement": "CD4", "setting": "[3]; DMSO 1.0", "value": 13.2}, {"measurement": "CD8", "setting": "[3]; DMSO 2.0", "value": 13.5}]}]}
